# Results as given in the NIST ThermoML archive (doi:10.1016/j.jct.2013.12.031).
# ± gives the expanded uncertainty stated by the source.
# Settings: Crystal; visual observation
smiles,measurement,value
Cc1ccc(S(=O)(=O)[O-])cc1.c1ccc2sc[nH+]c2c1 [benzothiazolium p-toluenesulfonate],Normal melting temperature,120.00 ± 0.5 °C
